Target: T1, human HSL (Homo sapiens, UniProt Q05469)
T1 construct: overlapping PCR to generate a full length human HSL ORF with a 3′-His6 tag; His6 (C); made in house; host or cells: High 5 insect cells (baculovirus, pFast-BAC)
T1 sequence (Q05469 1-1076): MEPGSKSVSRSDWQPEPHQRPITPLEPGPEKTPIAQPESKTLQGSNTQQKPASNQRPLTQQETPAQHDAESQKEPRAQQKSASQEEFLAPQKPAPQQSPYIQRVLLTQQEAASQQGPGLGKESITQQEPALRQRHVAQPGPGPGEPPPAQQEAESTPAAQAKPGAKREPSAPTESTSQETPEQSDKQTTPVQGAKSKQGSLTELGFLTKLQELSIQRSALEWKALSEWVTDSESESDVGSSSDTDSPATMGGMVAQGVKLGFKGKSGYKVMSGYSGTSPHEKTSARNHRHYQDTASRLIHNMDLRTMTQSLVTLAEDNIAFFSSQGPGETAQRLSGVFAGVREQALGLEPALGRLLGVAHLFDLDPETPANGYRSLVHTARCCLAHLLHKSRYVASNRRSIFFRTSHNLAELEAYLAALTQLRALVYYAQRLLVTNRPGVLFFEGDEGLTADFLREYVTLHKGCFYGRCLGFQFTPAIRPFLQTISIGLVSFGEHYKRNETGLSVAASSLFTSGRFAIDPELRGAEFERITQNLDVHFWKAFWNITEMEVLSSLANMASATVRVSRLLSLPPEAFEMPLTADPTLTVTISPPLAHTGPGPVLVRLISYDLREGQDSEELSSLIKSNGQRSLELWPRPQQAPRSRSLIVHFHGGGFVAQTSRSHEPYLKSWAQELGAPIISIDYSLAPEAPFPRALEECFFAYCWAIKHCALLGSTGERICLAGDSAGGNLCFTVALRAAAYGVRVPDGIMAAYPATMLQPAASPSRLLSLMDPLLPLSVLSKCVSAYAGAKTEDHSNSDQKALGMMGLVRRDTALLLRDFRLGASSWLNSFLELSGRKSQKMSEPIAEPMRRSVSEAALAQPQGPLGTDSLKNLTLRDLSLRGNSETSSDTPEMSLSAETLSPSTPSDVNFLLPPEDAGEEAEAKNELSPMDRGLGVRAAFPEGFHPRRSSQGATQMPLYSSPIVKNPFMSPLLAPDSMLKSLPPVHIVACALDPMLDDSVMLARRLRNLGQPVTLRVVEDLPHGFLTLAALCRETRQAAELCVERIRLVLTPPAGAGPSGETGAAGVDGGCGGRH
Test: Human Hormone-Sensitive Lipase (HSL) Enzyme Inhibition Assay
Format: biochemical
Settings: colorimetric assay, 2,3-dimercapto-1-propanol tributyrate (DMPT) substrate, 37° C. for 20 minutes, absorbance at 405 nm; read-out: HSL hum IC50
Protocol: Production of Human Full Length Hormone Sensitive Lipase-His^6
1) Cloning: cDNA was prepared from commercial human brain polyA-+ RNA and used as a template in overlapping PCR to generate a full length human HSL ORF with a 3′-His6 tag. This full length insert was cloned into the pFast-BAC vector and the DNA-sequence of several single clones was verified. DNA from a correct full length clone with the 3′His6 tag was used to transform the E. coli strain DH10BAC. Resulting bacmid DNA was used to generate a titered baculovirus stock for protein generation.
Cells were thawed. […] was done at 3×30 sec., Lubrol PX was added to 0.2% final concentration followed by stirring for 15 min. at 4° C. and centrifugation at 25 k×g, 60 min., 4° C. […] Supernatant was removed, the resin washed in the centrifuge vessel using 5 volumes of Base Buffer containing 0.2% Lubrol PX. Centrifugation was done again, then the supernatant discarded. The resin wass poured onto a 0.8 μm membrane in a disposable filter unit (Nalge 450-0080), and washed with 5 volumes of Base Buffer containing 0.2% Lubrol PX. It was then washed with 30 volumes of Base Buffer containing 60 mM imidazole pH 7.5 at 4° C. The protein was eluated with 5 volumes of 25 mM Tris-Cl, 300 mM NaCl, 200 mM imidazole, 10 mM 2-mercaptoethanol, pH 7.5 at 4° C. by tumbling resin with buffer end-over-end, 30 min., 4° C. The resin was captured on a 0.2 μm membrane disposable filter unit (Millipore SCGP U02 RE) and the eluate collected in the reservoir. The eluate was concentrated using a 30 k MWCO centrifugal filter device (Sartorius Vivascience Vivacell 100, VC1022), to 20 ml. It was then dialyzed overnight at 4° C., two times against 2 L of 10% glycerol, 25 mM Tris-Cl, 300 mM NaCl, 0.2 mM EDTA, 0.2 mM DTT, pH 7.5 at 4° C. The protein was filtered using a 0.22 μm disposable filter unit (Millipore SCGP00525). The protein concentration was calculated from absorbance at 280 nm, using 280=0.67 cm-1 mg-1. […] The protein was stored at −80° C.
Human Hormone-Sensitive Lipase (HSL) Enzyme Inhibition Assay:
HSL enzyme activity was measured by a colorimetric assay using 2,3-dimercapto-1-propanol tributyrate (Aldrich, St. Louis, Mo.) as a substrate. Typically, 1.5 mM 2,3-dimercapto-1-propanol tributyrate (DMPT) in 100 mM MOPS, pH 7.2, 0.2 mg/ml fatty acid-free BSA was prepared by sonication at 4° C. to homogenous suspension. Test compounds (2 mM stock in DMSO) were diluted 3 fold in series in DMSO. Compound solutions were diluted 24 fold in 1.5 mM DMPT containing solution and 18 ul per well was added to 384-well microplates (Corning Costar). Twelve microliters per well of human HSL (15 ug/ml) was added and the reaction mixture was incubated at 37° C. for 20 minutes. Six microliters of 12 mM dithio-bis-(2-nitrobenzoic acid) (DTNB) in DMSO plus 1.2% SDS and 0.6% Triton X-100 were added and the mixture was incubated at room temperature for 15 minutes. Product production was monitored by reading absorbance at 405 nm on an Envision Reader (PerkinElmer Life and Analytical Sciences, Shelton, Conn.).

Going from `CC(C)(C)CS(=O)(=O)N1CCC2(CCN(c3ccc(OC(F)(F)F)cc3)C2=O)CC1` [Example 19, 8-(2,2-Dimethyl-propane-1-sulfonyl)-2-(4-trifluoromethoxy-phenyl)-2,8-diaza-spiro[4.5]decan-1-one] to `CCc1ccc(N2CCC3(CCN(S(=O)(=O)CC(C)(C)C)CC3)C2=O)cc1` [Example 32, 8-(2,2-Dimethyl-propane-1-sulfonyl)-2-(4-ethyl-phenyl)-2,8-diaza-spiro[4.5]decan-1-one], the IC50 rises from 40 nM to 80 nM (2-fold). The first is the more potent here.

Compared with `CCc1ccc(N2CCC3(CCN(C(=O)CC(C)(C)C)CC3)C2=O)cc1` [Example 20, 8-(3,3-Dimethyl-butyryl)-2-(4-ethyl-phenyl)-2,8-diaza-spiro[4.5]decan-1-one], `CCCc1ccc(N2CCC3(CCN(C(=O)CC(C)(C)C)CC3)C2=O)cc1` [Example 31, 8-(3,3-Dimethyl-butyryl)-2-(4-propyl-phenyl)-2,8-diaza-spiro[4.5]decan-1-one] is 3-fold lower in IC50: 240 nM for the first, 80 nM for the second.

First: CCc1ccc(N2CCC3(CCN(S(=O)(=O)N4CCOCC4)CC3)C2=O)cc1 [Example 21, 2-(4-Ethyl-phenyl)-8-(morpholine-4-sulfonyl)-2,8-diaza-spiro[4.5]decan-1-one]
Second: CCC(C)c1ccc(N2CCC3(CCN(S(=O)(=O)N4CCOCC4)CC3)C2=O)cc1 (stereo not drawn) [Example 44, 2-(4-sec-Butyl-phenyl)-8-(morpholine-4-sulfonyl)-2,8-diaza-spiro[4.5]decan-1-one]
The IC50 of the first is 2.7-fold higher: 270 nM for the first, 100 nM for the second. The second is the more potent here.

First: CC(C)CS(=O)(=O)N1CCC2(CCN(c3ccc(OC(C)C)cc3)C2=O)CC1 [Example 23, 2-(4-Isopropoxy-phenyl)-8-(2-methyl-propane-1-sulfonyl)-2,8-diaza-spiro[4.5]decan-1-one]
Second: CCc1ccc(N2CCC3(CCN(S(=O)(=O)CC(C)C)CC3)C2=O)cc1 [Example 24, 2-(4-Ethyl-phenyl)-8-(2-methyl-propane-1-sulfonyl)-2,8-diaza-spiro[4.5]decan-1-one]
The IC50 of the first is 1.6-fold higher: 160 nM for the first, 100 nM for the second.

First: O=C1N(c2ccc(OCC(F)(F)F)cc2)CCC12CCN(S(=O)(=O)c1ccccc1)CC2 [Example 26, 8-Benzenesulfonyl-2-[4-(2,2,2-trifluoro-ethoxy)-phenyl]-2,8-diaza-spiro[4.5]decan-1-one]
Second: O=C1N(c2ccc(OC(F)(F)F)cc2)CCC12CCN(S(=O)(=O)c1cccs1)CC2 [Example 28, 8-(Thiophene-2-sulfonyl)-2-(4-trifluoromethoxy-phenyl)-2,8-diaza-spiro[4.5]decan-1-one]
The IC50 of the first is 1.5-fold higher: 60 nM for the first, 40 nM for the second. The second is the more potent here.

`CCc1ccc(N2CCC3(CCN(S(=O)(=O)c4cccs4)CC3)C2=O)cc1` [Example 29, 2-(4-Ethyl-phenyl)-8-(thiophene-2-sulfonyl)-2,8-diaza-spiro[4.5]decan-1-one] and `CCC(C)c1ccc(N2CCC3(CCN(S(=O)(=O)c4cccs4)CC3)C2=O)cc1` (stereo not drawn) [Example 43, 2-(4-sec-Butyl-phenyl)-8-(thiophene-2-sulfonyl)-2,8-diaza-spiro[4.5]decan-1-one] are within 1.5-fold of each other in IC50: 50 nM for the first, 40 nM for the second.

First: CCc1ccc(N2CCC3(CCN(S(=O)(=O)CCC(F)(F)F)CC3)C2=O)cc1 [Example 30, 2-(4-Ethyl-phenyl)-8-(3,3,3-trifluoro-propane-1-sulfonyl)-2,8-diaza-spiro[4.5]decan-1-one]
Second: CCCS(=O)(=O)N1CCC2(CCN(c3ccc(C4CC4)cc3)C2=O)CC1 [Example 39, 2-(4-Cyclopropyl-phenyl)-8-(propane-1-sulfonyl)-2,8-diaza-spiro[4.5]decan-1-one]
The IC50 of the first is 1.8-fold higher: 360 nM for the first, 200 nM for the second. The second is the more potent here.

Going from `O=C1N(c2ccc(C3CC3)cc2)CCC12CCN(S(=O)(=O)c1ccccc1Cl)CC2` [Example 33, 8-(2-Chloro-benzenesulfonyl)-2-(4-cyclopropyl-phenyl)-2,8-diaza-spiro[4.5]decan-1-one] to `CSc1ccc(N2CCC3(CCN(S(=O)(=O)c4ccccc4Cl)CC3)C2=O)cc1` [Example 34, 8-(2-Chloro-benzenesulfonyl)-2-(4-methylsulfanyl-phenyl)-2,8-diaza-spiro[4.5]decan-1-one], the IC50 rises from 30 nM to 100 nM (3.3-fold).

Going from `CC(C)(C)CC(=O)N1CCC2(CC1)CCN(c1ccc(C3CC3)cc1)C2=O` [Example 35, 2-(4-Cyclopropyl-phenyl)-8-(3,3-dimethyl-butyryl)-2,8-diaza-spiro[4.5]decan-1-one] to `CC(C)(C)CC(=O)N1CCC2(CC1)CCN(c1ccc(CC(F)(F)F)cc1)C2=O` [Example 40, 8-(3,3-Dimethyl-butyryl)-2-[4-(2,2,2-trifluoro-ethyl)-phenyl]-2,8-diaza-spiro[4.5]decan-1-one], the IC50 falls from 170 nM to 80 nM (2.1-fold). The second is the more potent here.

`O=C1N(c2ccc(C3CC3)cc2)CCC12CCN(S(=O)(=O)c1cccs1)CC2` [Example 36, 2-(4-Cyclopropyl-phenyl)-8-(thiophene-2-sulfonyl)-2,8-diaza-spiro[4.5]decan-1-one] and `O=C1N(c2ccc(C3CC3)cc2)CCC12CCN(S(=O)(=O)Cc1ccccc1)CC2` [Example 38, 2-(4-Cyclopropyl-phenyl)-8-phenylmethanesulfonyl-2,8-diaza-spiro[4.5]decan-1-one] are within 1.5-fold of each other in IC50: 50 nM for the first, 60 nM for the second.

Compared with `O=C(CC1CCCC1)N1CCC2(CC1)CCN(c1ccc(C3CC3)cc1)C2=O` [Example 37, 8-(2-Cyclopentyl-acetyl)-2-(4-cyclopropyl-phenyl)-2,8-diaza-spiro[4.5]decan-1-one], `CCc1ccc(N2CCC3(CCN(S(=O)(=O)c4ccc(C)s4)CC3)C2=O)cc1` [Example 41, 2-(4-Ethyl-phenyl)-8-(5-methyl-thiophene-2-sulfonyl)-2,8-diaza-spiro[4.5]decan-1-one] is 3.7-fold lower in IC50: 220 nM for the first, 60 nM for the second. The second is the more potent here.

First: Cc1ccc(S(=O)(=O)N2CCC3(CCN(c4ccc(OC(F)(F)F)cc4)C3=O)CC2)s1 [Example 42, 8-(5-Methyl-thiophene-2-sulfonyl)-2-(4-trifluoromethoxy-phenyl)-2,8-diaza-spiro[4.5]decan-1-one]
Second: CCC(C)c1ccc(N2CCC3(CCN(S(=O)(=O)c4ccc(C)s4)CC3)C2=O)cc1 (stereo not drawn) [Example 45, 2-(4-sec-Butyl-phenyl)-8-(5-methyl-thiophene-2-sulfonyl)-2,8-diaza-spiro[4.5]decan-1-one]
The IC50 of the first is 1.5-fold lower: 40 nM for the first, 60 nM for the second.

From US8329904B2, “Azacyclic derivatives” (Hoffmann-La Roche Inc., priority 2009, dated 2012)
